Results: PMC3362318 (Invertebrate Neuroscience, 2012)

Tests used:
Hco-L-AChR2 = target: T1, Hco-L-AChR2 (Haemonchus contortus, UniProt D6MYE9+D6MYF3+D6MYF4); test: two-electrode voltage clamp, Xenopus oocytes, peak current; assay type: cell-based; settings: agonist; -60 mV, 1 mM external CaCl2, pH 7.3, BAPTA-AM treated
T1 sequence (D6MYE9 21-498): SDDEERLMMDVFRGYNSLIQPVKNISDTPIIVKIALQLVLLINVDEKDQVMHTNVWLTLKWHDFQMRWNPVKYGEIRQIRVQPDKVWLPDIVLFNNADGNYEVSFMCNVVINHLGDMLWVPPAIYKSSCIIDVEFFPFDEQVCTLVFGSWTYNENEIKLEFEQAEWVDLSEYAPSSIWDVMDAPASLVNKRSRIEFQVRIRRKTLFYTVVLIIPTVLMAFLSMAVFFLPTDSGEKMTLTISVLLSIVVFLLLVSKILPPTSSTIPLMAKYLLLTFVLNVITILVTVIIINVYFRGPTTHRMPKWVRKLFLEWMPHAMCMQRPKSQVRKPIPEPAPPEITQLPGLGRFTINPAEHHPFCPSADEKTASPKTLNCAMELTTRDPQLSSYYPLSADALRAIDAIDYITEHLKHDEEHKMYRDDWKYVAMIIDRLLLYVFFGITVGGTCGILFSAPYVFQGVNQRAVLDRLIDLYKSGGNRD
T1 sequence (D6MYF3 20-512): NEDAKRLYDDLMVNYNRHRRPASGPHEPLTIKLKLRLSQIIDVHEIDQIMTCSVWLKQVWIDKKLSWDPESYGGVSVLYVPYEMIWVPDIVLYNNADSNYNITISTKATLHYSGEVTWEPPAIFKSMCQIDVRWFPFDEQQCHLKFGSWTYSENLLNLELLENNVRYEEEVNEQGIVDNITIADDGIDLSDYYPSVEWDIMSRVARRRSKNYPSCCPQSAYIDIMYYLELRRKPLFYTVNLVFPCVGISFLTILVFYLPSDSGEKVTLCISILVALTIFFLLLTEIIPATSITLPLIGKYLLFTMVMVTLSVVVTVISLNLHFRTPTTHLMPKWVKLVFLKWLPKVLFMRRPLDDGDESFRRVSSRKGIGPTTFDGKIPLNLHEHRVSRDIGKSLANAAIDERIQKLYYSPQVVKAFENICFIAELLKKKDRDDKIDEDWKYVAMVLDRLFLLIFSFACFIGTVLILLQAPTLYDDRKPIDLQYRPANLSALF
T1 sequence (D6MYF4 22-504): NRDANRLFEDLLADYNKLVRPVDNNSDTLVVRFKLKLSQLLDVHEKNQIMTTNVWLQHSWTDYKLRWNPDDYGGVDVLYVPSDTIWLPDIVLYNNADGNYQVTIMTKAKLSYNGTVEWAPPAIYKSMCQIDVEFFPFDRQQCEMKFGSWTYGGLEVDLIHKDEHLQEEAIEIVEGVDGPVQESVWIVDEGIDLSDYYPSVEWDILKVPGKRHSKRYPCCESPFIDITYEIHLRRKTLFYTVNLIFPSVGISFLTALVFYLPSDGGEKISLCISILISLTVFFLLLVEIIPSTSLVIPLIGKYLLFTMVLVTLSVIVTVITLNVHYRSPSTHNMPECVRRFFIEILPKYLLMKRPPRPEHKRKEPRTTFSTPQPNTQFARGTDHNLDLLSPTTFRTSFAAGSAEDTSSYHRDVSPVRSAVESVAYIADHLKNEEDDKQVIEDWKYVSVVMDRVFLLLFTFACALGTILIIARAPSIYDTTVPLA

Hco-L-AChR1 [1] = target: T2, Hco-L-AChR1 (Haemonchus contortus, UniProt A9XX24+D6MYE9+D6MYF3+D6MYF4); test: two-electrode voltage clamp, Xenopus oocytes, dose-response; assay type: cell-based
Hco-L-AChR1 [2] = target: T2, Hco-L-AChR1; settings: agonist; 30 μM; -60 mV, 1 mM external CaCl2, pH 7.3, BAPTA-AM treated

T2 sequence (A9XX24 19-536, one chain of several): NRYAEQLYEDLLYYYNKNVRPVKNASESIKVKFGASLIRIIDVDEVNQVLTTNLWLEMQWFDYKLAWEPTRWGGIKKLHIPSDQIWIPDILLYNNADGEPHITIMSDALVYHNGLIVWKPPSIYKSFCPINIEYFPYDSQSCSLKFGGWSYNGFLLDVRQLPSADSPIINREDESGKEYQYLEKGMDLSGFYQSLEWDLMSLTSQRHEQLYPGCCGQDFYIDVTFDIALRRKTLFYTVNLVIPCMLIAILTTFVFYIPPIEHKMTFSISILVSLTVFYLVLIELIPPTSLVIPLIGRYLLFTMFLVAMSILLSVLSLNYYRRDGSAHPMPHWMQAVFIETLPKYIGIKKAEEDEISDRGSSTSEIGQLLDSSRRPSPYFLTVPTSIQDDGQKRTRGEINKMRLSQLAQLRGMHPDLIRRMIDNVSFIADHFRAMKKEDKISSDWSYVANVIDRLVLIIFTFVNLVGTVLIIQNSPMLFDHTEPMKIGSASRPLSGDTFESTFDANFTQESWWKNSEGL

SMILES	two-electrode voltage clamp, Xenopus oocytes, peak current (Hco-L-AChR2)	EC50 (Hco-L-AChR1 [1])	two-electrode voltage clamp, Xenopus oocytes, peak current (Hco-L-AChR1 [2])
CN1CCC[C@H]1c1cccnc1 [Nic, nicotine]	Hco-L-AChR2 potency series was: pyrantel > acetylcholine > nicotine > levamisole		
c1ccc([C@H]2CN3CCSC3=N2)cc1 [Lev, levamisole]	Hco-L-AChR2 potency series was: pyrantel > acetylcholine > nicotine > levamisole	6.08 ± 0.3 µM	
C[N+](C)(CCOc1ccccc1)Cc1ccccc1 [Beph, bephenium]		7.7 ± 0.6 µM	
CN1CCCN=C1/C=C/c1cccs1 [Pyr, pyrantel]	Hco-L-AChR2 potency series was: pyrantel > acetylcholine > nicotine > levamisole		levamisole > acetylcholine > pyrantel > nicotine for the Hco-L-AChR1
